Reference: patent US20040180322A1, “Regional intestinal permeability model” (priority 2000, published 2004)
Values belong to the molecule of their own block, whether it stands above or below them. Where a SMILES comes first, the peptide text is derived from it. [ ]: non-standard residue; d: D form. Sar = CNCC(=O)O

How the values were obtained:
Caco-2 [1] = experiment: Caco-2 transepithelial transport with apical FaSSIF versus Mes (Experiment Three); assay type: in vitro ADME; details: for increase of A→B permeability with apical FaSSIF / increase of B→A permeability with apical FaSSIF: Caco-2, apical FaSSIF pH 6.5 compared with Mes pH 6.5
Protocol: Methods. […] Caco-2 transepithelial transport studies were performed using a standardized 24-well transwell format (20-24 day culture/passage 30-40). The transport experiments were performed using 0.3 mL apical solution either Ringers (pH 7.4), Mes (pH 6.5), or FaSSIF (pH 6.5, calcium free) and 1.2 mL basolateral solution (Ringer's buffer: pH 7.4, 290 mOsm/kg, 25 mM glucose). […] and B→A permeability was studied at 37° C., 50 opm, 95% humidity, and 5% CO2 using a 100 μM donor concentration with 1% DMSO. Monolayer integrity was evaluated by TEER measurements. Rabbit regional intestinal permeability studies were conducted using the Ussing side-by-side diffusion chamber, with volumes of 1.5 mL on each side. Intestinal segments (duodenum/jejunum/ileum/descending colon) were harvested from male New Zealand white rabbits (2.5-3.0 kg), stripped of the muscle layers and mounted in the chambers.

Caco-2 [2] = experiment: Caco-2 transepithelial transport at different apical pH, buffers and CO2 incubation (Experiment Two); assay type: in vitro ADME; details: for increase of A to B Effective Permeability (Peff) on change of apical pH from 7.4 to 6.5 / decrease of A to B Effective Permeability (Peff) on change of apical pH from 7.4 to 6.5: Caco-2, apical pH 6.5 vs 7.4; for decrease of A to B Peff in the absence of CO2: Caco-2, pH 7.4 Ringers without CO2, pH shifted to 7.8-8.0
Protocol: (§1) Methods. In vitro permeability of various transport marker compounds was investigated using different apical pH's (pH 7.4 and pH 6.5), different buffers (Ringers, Mes, and Hepes), and different incubation (with or without CO2) conditions. Caco-2 transepithelial transport studies were performed using a standardized 24-well transwell format (20-24 day culture/passage 30-40). The apical (A, 0.3 mL volume) and basolateral (B, 1.2 mL volume) reservoirs were filled with Ringer's buffer (pH 7.4, 290 mOsm/kg), containing 25 mM glucose. A→B and B→A permeability was studied at 37° C., 50 opm, 95% humidity, and 5% CO2 using a 100 μM donor concentration with 1% DMSO. Monolayer integrity was evaluated by transepithelial electrical resistance (TEER) measurements.

[3] = as above; assay type: in vitro ADME; details: human
Protocol: as §1

Caco-2 [4] = experiment: Inter-laboratory Caco-2 permeability values of marker compounds collected from references; assay type: in vitro ADME; details: for variability of in vitro permeability values in inter-laboratory Caco-2: values from 10 references with various culture and transport conditions
[5] = Caco-2 monolayer A to B permeability of marker compounds, standardized conditions (Experiment One); details: human, Caco-2, pH 7.4
Caco-2 [6] = details: cited from earlier work; for range of in vitro permeability values in inter-laboratory Caco-2: values from 10 references with various culture and transport conditions

- increase of A→B permeability with apical FaSSIF (Caco-2 [1]): 2 fold
- increase of B→A permeability with apical FaSSIF (Caco-2 [1]): 2 fold
Molecule: Polyethylene Glycol [PEG 4000]

- decrease of A→B permeability with apical FaSSIF (Caco-2 [1]; Caco-2, FaSSIF in apical compartment): 2 fold
- increase of A to B Effective Permeability (Peff) on change of apical pH from 7.4 to 6.5 (Caco-2 [2]): 6 ×
- decrease of A to B Peff in the absence of CO2 (Caco-2 [2]): 2 ×
Molecule: CN(CC(=O)O)C(=O)CN [glycylsarcosine] (H-Gly-[Sar]-OH)

- increase of A to B Effective Permeability (Peff) on change of apical pH from 7.4 to 6.5 (Caco-2 [2]): 3 ×
Molecule: CC(C)Cc1ccc(C(C)C(=O)O)cc1 (stereo not drawn) [ibuprofen]

- increase of A→B permeability with apical FaSSIF (Caco-2 [1]): 3 fold
Molecule: Nc1nc2c(ncn2COCCO)c(=O)[nH]1 [acyclovir]

- increase of A→B permeability with apical FaSSIF (Caco-2 [1]): 2 fold
- efflux ratio at 90 min, 100 μM ([3]; Caco-2, apical pH 6.5): 12
- efflux ratio at 90 min, 100 μM ([3]; Caco-2, apical pH 7.4): 8
Molecule: COc1cc([C@@H]2c3cc4c(cc3[C@@H](O[C@@H]3O[C@@H]5CO[C@@H](C)O[C@H]5[C@H](O)[C@H]3O)[C@H]3COC(=O)[C@H]23)OCO4)cc(OC)c1O [etoposide]

- decrease of A to B Peff in the absence of CO2 (Caco-2 [2]): 2 ×
Molecule: CC(C(=O)O)c1cccc(C(=O)c2ccccc2)c1 (stereo not drawn) [ketoprofen]

- efflux ratio at 90 min, 100 μM ([3]; Caco-2, apical pH 6.5): 32
- efflux ratio at 90 min, 100 μM ([3]; Caco-2, apical pH 7.4): 4
- decrease of A to B Effective Permeability (Peff) on change of apical pH from 7.4 to 6.5 (Caco-2 [2]): 5 ×
Molecule: CC[C@]1(O)C[C@@H]2CN(CCc3c([nH]c4ccccc34)[C@@](C(=O)OC)(c3cc4c(cc3OC)N(C)[C@H]3[C@@](O)(C(=O)OC)[C@H](OC(C)=O)[C@]5(CC)C=CCN6CC[C@]43[C@@H]65)C2)C1 [vinblastine]

- increase of A→B permeability with apical FaSSIF (Caco-2 [1]): 5 fold
Molecule: NC(=O)c1ncn([C@@H]2O[C@H](CO)[C@@H](O)[C@H]2O)n1 [ribavirin]

- variability of in vitro permeability values in inter-laboratory Caco-2 (Caco-2 [4]): 7 fold
- Papp A→B at 90 min, 100 μM [5]: 28.7 ×10⁻⁶ cm/s
- efflux ratio at 90 min, 100 μM ([3]; Caco-2, apical pH 6.5): > 4
- decrease of A to B Effective Permeability (Peff) on change of apical pH from 7.4 to 6.5 (Caco-2 [2]): 3 ×
Molecule: CC(C)NCC(O)COc1cccc2ccccc12 (stereo not drawn) [propranolol]
- range of in vitro permeability values in inter-laboratory Caco-2 (Caco-2 [6]): 14.8-110 ×10^−6 cm/s

- increase of A→B permeability with apical FaSSIF (Caco-2 [1]): 3 fold
- increase of B→A permeability with apical FaSSIF (Caco-2 [1]): 11 fold
- variability of in vitro Apparent Permeability (Papp) values from published references (Caco-2 [4]; published references): 345 fold
- variability of in vitro permeability values in inter-laboratory Caco-2 (Caco-2 [4]): 9 fold
- Papp A→B at 90 min, 100 μM [5]: 0.461 ×10⁻⁶ cm/s
Molecule: OC[C@@H](O)[C@@H](O)[C@H](O)[C@H](O)CO [mannitol]
- range of in vitro Apparent Permeability (Papp) values from published references (Caco-2 [6]; published references): 0.019-6.55 ×10^−6 cm/s
- range of in vitro permeability values in inter-laboratory Caco-2 (Caco-2 [6]): 0.38-3.23 ×10^−6 cm/s
